Experimental data published in EP0283151A2, “Prostaglandins useful for lowering intraocular pressure” (ALLERGAN, INC, priority 1987, dated 1988).
Marks after values point to notes of the source that are not given here.

Key:
[1] = IOP effects in conscious rabbits, applanation pneumatonometry; type: in vivo, New Zealand-Dutch Belt cross rabbits; design: IOP (Test): unit not given here; conditions: for IOP (Test): treated eye; for concentration having the same effect in lowering intraocular pressure: solution applied to the eye
Procedure: (§1) The ocular hypotensive activity of these compounds was measured by applanation pneumatonometry.
The effect of 0.1 percent PGF2α on IOP versus 0.01% solution of the 9,11,15 triacetyl ester of PGF2α was measured in New Zealand-Dutch Belt cross rabbits. Intraocular pressure was measured by applanation pneumatonometry in conscious animals. Nine animals were used for each experiment. The data from this study as summarized in Table I show about a 10-fold difference in the activity of 9,11,15-triacetyl PGF2α compound over PGF2α.

[2] = Duration of IOP-lowering action in cats after topical application; type: in vivo; design: unit not given here; conditions: topical 0.1%, 25μL
Procedure: as §1
The duration of action of the triester (9,11,15-triacetyl ester) in comparison with that of the native PGF2α was tested in cats.

Structure (SMILES)	concentration having the same effect in lowering intraocular pressure [1] [%]	Test IOP ([2]; 0.0 hours)	Test IOP ([2]; 0.5 hours)	Test IOP ([2]; 1.0 hours)	Test IOP ([2]; 2.0 hours)	Test IOP ([2]; 3.0 hours)	Test IOP ([2]; 4.0 hours)	Test IOP ([2]; 6.0 hours)	Test IOP ([2]; 24.0 hours)	Test IOP ([2]; -0.5 hours)	other results
CCCCC[C@H](O)/C=C/[C@@H]1[C@@H](C/C=C\CCCC(=O)O)[C@@H](O)C[C@H]1O [PGF2α, reference compound]	0.1	19.8	18.2	15.4*	14.5*	15.3*	16.7*	21.5	19.8	19.7	IOP (Test) ([1]; rabbits, 0.1% solution, 0 hours): 21.67; IOP (Test) ([1]; rabbits, 0.1% solution, 0.5 hours): 23.00; IOP (Test) ([1]; rabbits, 0.1% solution, 1.0 hours): 24.00; IOP (Test) ([1]; rabbits, 0.1% solution, 1.5 hours): 24.35; IOP (Test) ([1]; rabbits, 0.1% solution, 2.0 hours): 22.67; IOP (Test) ([1]; rabbits, 0.1% solution, 2.5 hours): 20.92; IOP (Test) ([1]; rabbits, 0.1% solution, 3.5 hours): 19.50*; IOP (Test) ([1]; rabbits, 0.1% solution, 4.5 hours): 20.75
CCCCC[C@@H](/C=C/[C@H]1C(OC(C)=O)C[C@H](OC(C)=O)[C@@H]1C/C=C\CCCC(=O)O)OC(C)=O (stereo partly drawn) [Triester, (5Z,9α,13E,15S)-9,11,15-triacetoxyprosta-5,13-dienoic acid]	0.01	20.6	18.6	17.9*	17.0*	18.0*	17.8*	18.8*	20.0*	21.2	IOP (Test) ([1]; rabbits, 0.01% solution, 0 hours): 24.39; IOP (Test) ([1]; rabbits, 0.01% solution, 0.5 hours): 24.67; IOP (Test) ([1]; rabbits, 0.01% solution, 1.0 hours): 23.56; IOP (Test) ([1]; rabbits, 0.01% solution, 1.5 hours): 22.72*; IOP (Test) ([1]; rabbits, 0.01% solution, 2.0 hours): 21.33*; IOP (Test) ([1]; rabbits, 0.01% solution, 2.5 hours): 20.83*; IOP (Test) ([1]; rabbits, 0.01% solution, 3.5 hours): 22.22*; IOP (Test) ([1]; rabbits, 0.01% solution, 4.5 hours): 23.28; increase in potency in terms of lowering IOP compared to PGF2α ([1]; rabbits, 0.01% triacetyl ester versus 0.1% PGF2α): ~10 fold
